Laboratory results taken from EP1255573B1, “COMPOSITIONs comprising monoperphthalic acid useful for treating contact lens” (Novartis AG, priority 2000, dated 2001).

What was measured:
[1] = tested on: L929 mammalian fibroblasts; assay: MEM toxicity test (USP standard elution cytotoxicity, trypan blue); assay type: cell-based; design: key to toxicity, MEM level / MEM Result: 0: No cell lysis - Discrete intracytoplasmic granules; 1: Not more than 20% of cells round and loosely attached - occasional lysed cells present; 2: Not more than 50% of cells round - extensive cell lysis and empty areas between cells; 3: Not more than 70% of the cell layers contain rounded cells and/or lysed; 4: Nearly complete destruction of the cell layer
Text: In testing the toxicity of compounds of the compositions disclosed in solution, an MEM test procedure is used. The MEM (Minimum Essential Medium) test procedure is employed to evaluate cytoxicity using standard USP (The United States Pharmacopeial Convention) elution assays. A description of the test procedure is provided herein.
The assay provides a means of evaluating extracts of polymeric materials under direct contact conditions. This method is appropriate for high-density materials and for dose-response evaluations.
Media Preparation: 1X MEM media is prepared by mixing 100 mL Eagle's MEM (with Earl's Salts and Sodium Bicarbonate, without L-glutamine), with 10mL serum, 1 mL-glutamine solution, and 0.5 mL antibiotic solution (L-glutamine and antibiotic solutions are purchased at correct concentrations and stored frozen at -20 °C±2). Eagle's
Before use, a 4 ml aliquot of 10X trypsin is diluted 1:9 with 36 ml of Dulbecco's Phosphate Buffered Saline (PBS) to yield a 0.25% solution. Dulbecco's Saline is available from Mediatech Cellgro. Sterile 35 mm diameter petri dishes or 6 well tissue culture plates are used. Sterile serological pipets are employed in the procedure. Sterile absorbent material (e.g. Kay-Drys or similar material) is used. L929 mammalian fibroblasts (ATCC cell line CCL1, NCTC clone 929) are employed.
Overview of Method: Cell cultures are grown to a near confluent monolayer in 6 well plates (the wells are 35mm). After the test, material is extracted under various conditions (i.e. extracting medium, time, temperature) so as to allow evaluation of extract toxicity in accordance with USP procedures. These procedures define methods to be used to extract materials for in vivo or in vitro toxicity evaluations in accordance with United States Pharmacopoeia (USP). The Sodium Chloride Injection extract is diluted with serum-supplemented cell culture medium at 25% extract concentration. Each culture is examined microscopically after 48 hours using trypan blue for the presence of morphological changes, reduction in cell density or cell lysis induced by the test material.
Cell Layer Preparation: The next step is to tryptanize cells. Next, one determines cell density using standard methods to define standard cell biology methods to be used to determine and adjust the concentration of a cell suspension, i.e. cell density. Then, an adjustment is made to yield a standard cell suspension with a density of 250,000 to 350,000 cell/mL in serum supplemented MEM for L929 cells. Seed cells are placed into 6 well plates by pipetting 2 ml of the standard cell suspension into each well. […]
Exposure to Test Extracts: Exposure to test extracts is determined examining a representative prepared cell culture plate using the microscope to observe the cell monolayer for correct confluency. […]

[2] = Stability of magnesium perphthalate (statement); assay type: physicochemical
Solubility (statement) = assay type: physicochemical

For `O.O.O.O.O.O.O=C([O-])c1ccccc1C(=O)O[O-].[Mg+2]` [magnesium perphthalate, magnesium monoperoxyphthalate hexahydrate], the “toxicity, MEM Test Result level” value ([1]; concentrations below 0.5%, generally) was 1 (Not more than 20% of cells round and loosely attached - occasional lysed cells present), the “toxicity, MEM level” value ([1]; concentrations of 0.5% and above, with and without saline) was 4 and the toxicity ([1]; concentrations of about 0.25% and below in a chloride or other halide-containing solution) was “not toxic”. For the same molecule, the “MEM Result” value ([1]; some test results at below 0.5% magnesium perphthalate) was 0, the stability ([2]; in aqueous solution) was “not stable” and the stability ([2]; in solid form) was “stable”. The solubility (Solubility (statement)) was “freely soluble”.
